The results in this text go back to patent US12065443B2, “Compounds and pharmaceutical compositions thereof for the treatment of diseases” (priority 2017, dated 2024).

In assay [1] the test system is LPS triggered IL-10 secretion in monocyte-derived macrophages (MdM). The assay is described as follows: MdM assay: LPS-triggered IL-10 (ELISA). It is filed as cell-based, human. Conditions: maximal fold change vs LPS only, median across assays. As for the experimental part:
This assay evaluates illustrative compounds of the invention for their inhibition of LPS-induced TNFα and LPS triggered IL-10 secretion in monocyte-derived macrophages.
PBMCs are isolated from human blood samples (buffycoats). The buffy coat is aseptically transferred into a 50 mL Falcon tube, and diluted 1/2 in PBS. Falcon tubes are filled with 20 mL Lymphoprep™, on top of which 25 mL of the buffy coat is carefully added, tubes are centrifuged for 35 min at 400 g in temperature controlled centrifuge, without brake, at 25° C. PBMCs are aspirated from the white interface layer between sample and Lymphoprep™. PBMCs are washed five times in PBS.
PBMCs are centrifuged at 300×g for 10 min and resuspended at a density of 1.0E07 cells/80 μL Miltenyi buffer (PBS, pH 7.4, 1% FBS, 2 mM EDTA).
Starting from this point of the protocol all steps are performed on ice. 20 μL of CD14+ micro-beads are added per 1.0E07 cells, the tube is mixed and incubated for 15 min in the fridge at 4° C. Cell suspension volume is adjusted to total volume of 100 mL using Miltenyi buffer, mixed gently and subsequently centrifuged for 10 min at 300× g. Supernantant is discarded and cell pellet is resuspended in 12 mL of Miltenyi buffer.
Four LS columns are placed in the MACS Separator (magnet) from Miltenyi Biotec, and are prewet by rinsing with 3 mL of MACS buffer per column. Three mL of cell suspension is added onto the column (max 1*10^8 of labelled cells/column), and columns are subsequently washed 3 times with 3 mL of Miltenyi buffer.
The columns are removed from the magnets, and 5 mL of Miltenyi buffer are added to the column to flush out the CD14+ fraction by pushing the plunger into the column. The flushed fractions are collected in a fresh 50 mL Falcon and volume is adjusted to 30 mL using Miltenyi buffer, cells are centrifuged for 10 min at 300× g. The obtained cell pellet is resuspended in 10 mL RPMI w/o FBS, and cell density is determined using a hematologic analyser (Sysmex XS-500i).
On day 10, MdMs are triggered and compound is added.
A compound dilution plate is made in 100% DMSO by 3-fold dilution of 10 mM stock solution. An intermediate dilution plate (10× final concentration) is made by diluting the compound dilution plate 50-fold in RPMI medium.
Medium is carefully removed from cell plates using multichannel pipette, and replaced by 80 μL fresh medium. 10 μL of the 10× final concentration compound is added to the cells and incubated for 1 hour at 37° C. before addition of trigger. No trigger conditions/trigger conditions are spiked with equal final DMSO concentrations of 0.2% DMSO. 10 μL of 10×LPS (final conc. 200 ng/mL) solution are added to all wells except for the ‘no trigger wells’ where 10 μL medium is added. Supernatant is collected after 2 h (IL-10 determination) and after 20 h (TNFα determination) of LPS triggering.
Plates are washed three times with PBST, where after 100 μL of Strep-HRP conjugate (0.5 μg/mL final concentration diluted in dilution buffer) is added. Plates are incubated in the dark, at 37° C. for 30 min. Plates are washed three times with PBST. […] 100 μL of substrate solution is added to each well and incubated until brilliant blue color develops. The reaction is stopped by adding 50 μL of 1 M H2SO4, after which absorbance is measured at 450 nm on the SpectraMax i3, Molecular Devices.
To quantify these inductions fold changes (FC) compared to ‘LPS only’ are calculated for each concentration tested and the maximal FC is calculated (IL-10 FCmax):
[formula] wherein ABS=Absorbance measured at 450 nm.
The median maximal FC for test compounds across two or more assays is reported (IL-10FCmax median).
On the technique in general: In an ELISA, binding on a coated surface is turned into a signal by an enzyme label.

Assay [2] deals with T1, SIK2 (Homo sapiens, UniProt Q9H0K1).
T1 construct: purchased ThermoFisher Scientific PV4792
Briefly: biochemical. As to conditions: 33P radioactive SIK kinase assay, AMARA peptide, 10 μM ATP. A digest of the protocol:
(§1)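 Radiometric assay: SIK1, SIK2 or SIK3 phosphorylates AMARA peptide using unlabelled plus [^33P]-γ-ATP, reaction started by ATP addition. Stopped with 150 mM phosphoric acid, filter-harvested and washed; incorporated ^33P counted by scintillation. Controls: 1% DMSO and 10 μM staurosporine final.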

The target of assay [3] is T2, SIK1 (Homo sapiens, UniProt P57059).
T2 construct: purchased Carna Biosciences 02-131
The assay is described as follows: biochemical. Conditions: 33P radioactive SIK kinase assay, AMARA peptide, 10 μM ATP; read-out: SIK1 IC50. A digest of the protocol:
as §1

Assay [4] deals with T3, SIK3 (Homo sapiens, UniProt Q9Y2K2).
T3 construct: purchased SignalChem S12-11G-100
Briefly: biochemical. The essentials: as §1

Assay [5] deals with LPS-induced TNFα secretion in monocyte-derived macrophages (MdM). Briefly: MdM assay: LPS-triggered TNFα (ELISA). Type of assay: cell-based, human. Conditions: Homo sapiens, Macrophage, LPS-triggered TNFα inhibition. A digest of the protocol:
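TNFα ELISA read on supernatants harvested 20 h after LPS (final 200 ng/mL) stimulation. Cells were day-10 macrophages derived from human blood CD14+ monocytes, exposed to 3-fold compound dilutions for 1 h at 37 °C beforehand, with DMSO held at 0.2%.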

T2 sequence (P57059 whole entry): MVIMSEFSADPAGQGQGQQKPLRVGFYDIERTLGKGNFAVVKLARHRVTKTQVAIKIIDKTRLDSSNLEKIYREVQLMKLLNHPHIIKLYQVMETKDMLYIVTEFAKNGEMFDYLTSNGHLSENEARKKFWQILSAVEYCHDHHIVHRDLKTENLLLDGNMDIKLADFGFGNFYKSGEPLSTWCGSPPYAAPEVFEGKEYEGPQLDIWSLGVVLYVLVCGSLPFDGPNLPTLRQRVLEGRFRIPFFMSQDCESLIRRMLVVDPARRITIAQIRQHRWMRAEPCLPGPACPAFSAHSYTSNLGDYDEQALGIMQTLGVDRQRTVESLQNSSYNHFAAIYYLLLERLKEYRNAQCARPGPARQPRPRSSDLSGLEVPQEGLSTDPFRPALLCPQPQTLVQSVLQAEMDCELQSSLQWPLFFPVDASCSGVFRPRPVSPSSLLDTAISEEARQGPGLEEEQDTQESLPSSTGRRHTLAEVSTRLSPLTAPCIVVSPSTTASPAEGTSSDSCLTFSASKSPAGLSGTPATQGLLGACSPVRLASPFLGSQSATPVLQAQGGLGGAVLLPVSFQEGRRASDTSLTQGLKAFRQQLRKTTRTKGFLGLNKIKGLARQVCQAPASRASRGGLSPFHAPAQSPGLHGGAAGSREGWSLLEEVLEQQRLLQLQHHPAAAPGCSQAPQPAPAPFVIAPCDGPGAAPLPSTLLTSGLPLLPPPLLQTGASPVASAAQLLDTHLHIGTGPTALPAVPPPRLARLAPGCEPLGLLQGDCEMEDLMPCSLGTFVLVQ
T1 sequence (Q9H0K1 whole entry): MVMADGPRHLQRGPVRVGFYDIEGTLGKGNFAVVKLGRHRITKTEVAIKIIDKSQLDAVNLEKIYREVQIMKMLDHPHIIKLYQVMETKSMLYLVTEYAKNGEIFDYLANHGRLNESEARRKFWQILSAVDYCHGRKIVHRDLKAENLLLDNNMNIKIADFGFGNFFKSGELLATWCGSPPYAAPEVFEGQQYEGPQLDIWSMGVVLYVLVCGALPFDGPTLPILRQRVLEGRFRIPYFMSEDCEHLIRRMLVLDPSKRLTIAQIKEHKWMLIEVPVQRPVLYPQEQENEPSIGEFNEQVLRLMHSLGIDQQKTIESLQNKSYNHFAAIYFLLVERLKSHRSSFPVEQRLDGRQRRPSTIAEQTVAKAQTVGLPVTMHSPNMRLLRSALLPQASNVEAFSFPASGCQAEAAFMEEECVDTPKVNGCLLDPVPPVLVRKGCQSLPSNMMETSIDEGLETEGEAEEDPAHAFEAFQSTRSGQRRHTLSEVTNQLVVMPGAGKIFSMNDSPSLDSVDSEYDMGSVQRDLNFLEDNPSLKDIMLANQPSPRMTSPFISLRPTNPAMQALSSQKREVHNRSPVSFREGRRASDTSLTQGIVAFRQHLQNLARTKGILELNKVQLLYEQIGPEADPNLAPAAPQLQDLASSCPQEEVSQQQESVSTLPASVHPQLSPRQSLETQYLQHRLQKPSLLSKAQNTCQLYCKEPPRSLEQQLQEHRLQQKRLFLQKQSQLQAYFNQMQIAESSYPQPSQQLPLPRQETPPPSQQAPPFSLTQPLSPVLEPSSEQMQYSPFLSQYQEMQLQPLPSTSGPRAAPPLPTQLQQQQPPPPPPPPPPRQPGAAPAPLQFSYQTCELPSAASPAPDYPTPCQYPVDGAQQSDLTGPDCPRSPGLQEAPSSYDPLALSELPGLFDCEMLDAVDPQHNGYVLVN
T3 sequence (Q9Y2K2 whole entry): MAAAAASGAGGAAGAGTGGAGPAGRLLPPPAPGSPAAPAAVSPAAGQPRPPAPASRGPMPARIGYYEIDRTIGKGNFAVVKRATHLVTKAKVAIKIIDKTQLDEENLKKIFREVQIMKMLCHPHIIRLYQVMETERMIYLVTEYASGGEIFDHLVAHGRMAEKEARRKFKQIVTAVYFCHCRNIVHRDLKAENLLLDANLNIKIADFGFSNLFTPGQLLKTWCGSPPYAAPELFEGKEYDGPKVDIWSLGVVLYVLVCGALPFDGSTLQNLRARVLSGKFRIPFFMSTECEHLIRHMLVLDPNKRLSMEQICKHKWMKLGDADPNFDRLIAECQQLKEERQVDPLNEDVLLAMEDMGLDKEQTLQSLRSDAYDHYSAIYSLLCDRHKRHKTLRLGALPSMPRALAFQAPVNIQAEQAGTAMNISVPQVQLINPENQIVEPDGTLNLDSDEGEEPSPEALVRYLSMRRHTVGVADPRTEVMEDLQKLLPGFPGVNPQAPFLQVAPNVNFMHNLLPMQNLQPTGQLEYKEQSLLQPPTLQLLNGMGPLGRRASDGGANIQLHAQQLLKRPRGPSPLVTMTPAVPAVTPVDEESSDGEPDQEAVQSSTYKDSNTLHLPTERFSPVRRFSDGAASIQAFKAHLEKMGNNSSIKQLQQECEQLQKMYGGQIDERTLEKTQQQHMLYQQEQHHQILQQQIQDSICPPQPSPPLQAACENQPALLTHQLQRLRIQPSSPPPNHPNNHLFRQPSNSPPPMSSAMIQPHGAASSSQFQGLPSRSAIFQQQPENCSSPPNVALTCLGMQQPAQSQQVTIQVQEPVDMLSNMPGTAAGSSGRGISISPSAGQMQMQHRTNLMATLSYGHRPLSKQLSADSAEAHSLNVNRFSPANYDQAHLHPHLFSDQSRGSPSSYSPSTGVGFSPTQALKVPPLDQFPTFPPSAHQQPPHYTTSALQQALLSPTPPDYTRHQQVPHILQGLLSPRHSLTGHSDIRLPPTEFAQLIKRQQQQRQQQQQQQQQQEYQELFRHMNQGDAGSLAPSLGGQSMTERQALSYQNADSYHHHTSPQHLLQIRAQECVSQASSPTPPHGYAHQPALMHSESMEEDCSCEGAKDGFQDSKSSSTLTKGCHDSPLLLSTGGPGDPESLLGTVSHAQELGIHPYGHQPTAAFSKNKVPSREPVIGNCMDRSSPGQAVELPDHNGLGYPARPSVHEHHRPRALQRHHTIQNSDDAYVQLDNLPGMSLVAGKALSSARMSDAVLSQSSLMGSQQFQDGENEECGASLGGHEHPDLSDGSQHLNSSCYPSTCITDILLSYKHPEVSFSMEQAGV

For orientation: IC50 means the midpoint of a concentration-inhibition curve. Usually EC50 stands for the concentration at which the effect is half-maximal. A lower EC50 goes with a more potent agent. On to `COc1cc(-c2cnc3cc(-c4cnn(C)c4)ccn23)cc(C)c1C(=O)NCC(F)(F)F` [Cpd 206, 2-methoxy-6-methyl-4-[7-(1-methylpyrazol-4-yl)imidazo[1,2-a]pyridin-3-yl]-N-(2,2,2-trifluoroethyl)benzamide], for which the “IL-10 FCmax median” value in assay [1] is listed as “+++ (>4.5)”. Also, the IC50 in assay [2], in assay [3] and in assay [4] was 10 to 100 nM in each case. Also, in assay [5], the half-maximal effective concentration (EC50) was in the range of 100 to 1000 nM.

For the molecule `CCNC(=O)c1c(OC)cc(-n2cnc3cc(-c4ccc(N5CCOCC5)nc4)ccc32)cc1OC` [compound 3, N-ethyl-2,6-dimethoxy-4-[5-(6-morpholino-3-pyridyl)benzimidazol-1-yl]benzamide], in assay [1], the “IL-10 FCmax median” value is “++ (>1.5-4.5)”. In addition, the IC50 in assay [2], in assay [3] and in assay [4] was 10 to 100 nM each time. Further, the EC50 in assay [5] is 100 to 1000 nM.

As to `COc1cc(-n2cnc3cc(-c4cnn(CC#N)c4)ccc32)cc(OC)c1C(=O)NCC(F)(F)F` [compound 40, 4-[5-[1-(cyanomethyl)pyrazol-4-yl]benzimidazol-1-yl]-2,6-dimethoxy-N-(2,2,2-trifIuoroethyl)benzamide], the “IL-10 FCmax median” value in assay [1] was “++ (>1.5-4.5)”. For the same molecule, the concentration for half-maximal inhibition (IC50) in assay [2] lay in the range of 0.01 to 10 nM; in assay [3] it was 10 to 100 nM; in assay [4], 0.01 to 10 nM. Also, the EC50 in assay [5] was in the range of 0.1 to 100 nM.

On to `CCn1cc(-c2ccc3c(c2)ncn3-c2cc(OC)c(C(=O)NC3CC3)c(OC(F)F)c2)cn1` [compound 54, N-cyclopropyl-2-(difluoromethoxy)-4-[5-(1-ethylpyrazol-4-yl)benzimidazol-1-yl]-6-methoxy-benzamide], for which the “IL-10 FCmax median” value in assay [1] was “++ (>1.5-4.5)”. Further, the concentration for half-maximal inhibition (IC50) lay within 0.01 to 10 nM in assay [2], 10 to 100 nM in assay [3] and 0.01 to 10 nM in assay [4]. In assay [5], the EC50 lay within 0.1 to 100 nM.

On to `CCn1cc(-c2cnc3c(-c4cc(OC)c(C(=O)NCC(F)(F)F)c(OC)c4)cnn3c2)cn1` [compound 20, 4-[6-(1-ethylpyrazol-4-yl)pyrazolo[1,5-a]pyrimidin-3-yl]-2,6-dimethoxy-N-(2,2,2-trifluoroethyl)benzamide], for which, in assay [1], the “IL-10 FCmax median” value is reported as “++ (>1.5-4.5)”. In addition, the concentration for half-maximal inhibition (IC50) lay in the range of 0.01 to 10 nM in assay [2], 10 to 100 nM in assay [3] and 10 to 100 nM in assay [4]. The molecule also registered an EC50 in assay [5] of 100 to 1000 nM.

Turning to `COc1cc(-n2cnc3cc(-c4cnn(CCN5CCOCC5)c4)ccc32)cc(OC)c1C(=O)NCC(F)(F)F` [compound 41, 2,6-dimethoxy-4-[5-[1-(2-morpholinoethyl)pyrazol-4-yl]benzimidazol-1-yl]-N-(2,2,2-trifluoroethyl)benzamide], the “IL-10 FCmax median” value in assay [1] was “++ (>1.5-4.5)”. Moreover, the IC50 lay within 0.01 to 10 nM in assay [2], 10 to 100 nM in assay [3] and 0.01 to 10 nM in assay [4]. Besides, in assay [5], the EC50 is 100 to 1000 nM.

For the molecule `CCn1cc(-c2ccc3c(c2)ncn3-c2cc(OC)c(C(=O)NC3C[C@H]3C)c(OC)c2)cn1` (stereo partly drawn) [compound 49, 4-[5-(1-ethylpyrazol-4-yl)benzimidazol-1-yl]-2,6-dimethoxy-N-[(2R)-2-methylcyclopropyl]benzamide], the “IL-10 FCmax median” value in assay [1] is recorded as “++ (>1.5-4.5)”. For the same molecule, the IC50 in assay [2], in assay [3] and in assay [4] was 10 to 100 nM in each case. In assay [5], this molecule gave an EC50 of over 5000 nM.

On to `COc1ccc(-c2ccn3c(-c4cc(OC)c(C(=O)NCC(F)(F)F)c(OC)c4)cnc3c2)cn1` [compound 239, 2,6-dimethoxy-4-[7-(6-mcthoxy-3-pyridyl)imidazo[1,2--a]pyridin-3-yl]-N-(2,2,2-trifluoroethyl)benzamide], for which the “IL-10 FCmax median” value in assay [1] was “++ (>1.5-4.5)”. Moreover, the 50% inhibitory concentration (IC50) fell in the range of 0.01 to 10 nM in assay [2], 10 to 100 nM in assay [3] and 0.01 to 10 nM in assay [4]. The 50% effective concentration (EC50) in assay [5] fell in the range of 100 to 1000 nM.

In the case of `CCOC(=O)CCCn1cc(-c2ccn3c(-c4cc(OC)c(C(=O)NCC(F)(F)F)c(OC)c4)cnc3c2)cn1` [compound 257, ethyl 4-[4-[3-[3,5-dimethoxy-4-(2,2,2-trifluoroethyl-carbamoyl)phenyl]imidazo[1,2-a]pyridin-7-yl]pyrazol-1-yl]butanoate], in assay [1], the “IL-10 FCmax median” value is reported as “+ (≤1.5)”. For the same molecule, the IC50 in assay [2], in assay [3] and in assay [4] was 0.01 to 10 nM each time. In addition, the EC50 in assay [5] is 0.1 to 100 nM.

As to `COc1cc(-n2cnc3cc(-c4cnn(C)c4)ccc32)cc(OC)c1C(=O)N[C@@H]1C[C@@H]1F` [compound 144, N-[(1R,2S)-2-fluorocyclopropyl)-2,6-dimethoxy-4-[5-(1-methylpyrazol-4-yl)benzimidazol-1-yl]benzamide], in assay [1], the “IL-10 FCmax median” value is recorded as “++ (>1.5-4.5)”. Further, the IC50 in assay [2], in assay [3] and in assay [4] was 0.01 to 10 nM in each case. In addition, the EC50 in assay [5] fell in the range of 0.1 to 100 nM.

As for `CCn1cc(-c2ccc3c(c2)ncn3-c2cc(OC)c(C(=O)NCC#N)c(OC)c2)cn1` [compound 50, N-(cyanomethyl)-4-[5-(1-ethylpyrazol-4-yl)benzimidazol-1-yl]-2,6-dimethoxy-benzamide], the “IL-10 FCmax median” value in assay [1] was “++ (>1.5-4.5)”. Also, the IC50 was in the range of 0.01 to 10 nM in assay [2], 10 to 100 nM in assay [3] and 0.01 to 10 nM in assay [4]. This molecule also returned a concentration for a half-maximal effect (EC50) in assay [5] of 100 to 1000 nM.

For the molecule `CCNC(=O)c1c(OC)cc(-c2cnn3cc(-c4cnn(CC)c4)cnc23)cc1OC` [compound 9, N-ethyl-4-[6-(1-ethylpyrazol-4-yl)pyrazolo[1,5-a]pyrimidin-3-yl]-2,6-dimethoxy-benzamide], the “IL-10 FCmax median” value in assay [1] is reported as “++ (>1.5-4.5)”. Besides, the IC50 in assay [2], in assay [3] and in assay [4] was 10 to 100 nM throughout. This molecule also showed an EC50 in assay [5] of 100 to 1000 nM.
